Test results from patent publication US6136798A, “Compounds inhibiting the association of the PDGF receptor and phosphatidylinositol 3-kinase and their use” (Warner-Lambert Company, priority 1999, dated 2000).

Legend:
[1] = target: T1, PDGF-β receptor tyrosine kinase intracellular domain / p85 SH2 fusion protein (PDGF Receptor/PI3-Kinase Association) (Homo sapiens, UniProt P27986); assay: p85 SH2--PDGF-β Receptor Binding Assay; conditions: [35S]p85 C-terminal SH2 fusion protein binding to phosphorylated PDGF-β receptor; 25° C., 20 minutes
T1 construct: The pGEX plasmid expressing the carboxy-terminal SH2 of the p85 subunit of PI3-kinase; made in house; host or cells: p85 SH2-GST: E. coli; PDGF-β receptor intracellular domain: SF9 insect cells, obtained from L. T. Williams (UCSF)
T1 sequence (P27986 624-718 limits assumed): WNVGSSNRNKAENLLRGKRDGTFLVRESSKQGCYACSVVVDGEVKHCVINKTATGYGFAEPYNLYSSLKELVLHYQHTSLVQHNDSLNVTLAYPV
Protocol: The pGEX plasmid expressing the carboxy-terminal SH2 of the p85 subunit of PI3-kinase in a glutathione-s-transferase (GST) fusion protein was used in these studies. Expression and purification of the fusion protein was performed as previously described by Zhu, et al., J. Biol. Chem., 1993;268:1175. To prepare [^35 S]p85 fusion proteins, a 125 mL overnight culture of E. coli expressing the p85-GST fusion protein was added to 1000 mL of LB broth containing 100 μg/mL ampicillin. The cultures were incubated at 37° C. until reaching a density of A600 =1.0. 1 mM of isopropyl-β-D-thiogalactoside was added and 15 minutes later, 10 mCi of trans ^35 S-label was added and cultures incubated for an additional 3 hours at 37° C. The cells were then lysed by sonication and fusion proteins purified over glutathione-agarose beads.
Lysates from SF9 insect cells expressing the PDGF-β receptor tyrosine kinase intracellular domain, obtained from L. T. Williams at the University of California at San Francisco, were incubated with M2 affinity beads and the complexes were washed several times with Tris buffer containing protease inhibitors and sodium orthovanadate. Complexes were centrifuged and resuspended in N-[2-hydroxyethyl]piperazine-N'-[2-ethane sulfonic acid] (HEPES) buffer containing 1 mM adenosine triphosphate (ATP), 10 mM MnCl2, and 5 mM MgCl2 to stimulate phosphorylation of the PDGF receptor.
Binding of [^35 S]p85 SH2 fusion proteins to the phosphorylated PDGF-β receptor tyrosine kinase intracellular domain was assayed in Hepes buffer containing ethylene diamine tetraacetic acid (EDTA), NP-40 and […] of each of the protease inhibitors, PMSF, pepstatin, leupeptin, and aprotinin. Binding assays were performed in 96-well millipore filter plates in a final volume of […] of HEPES buffer containing 135 μL phosphorylated PDGF receptor-beads complex (1 μg receptor/well), 10 μL [^35 S]p85 SH2 fusion protein (30,000 cpm/well), and 5 μL of peptide inhibitor as indicated. Samples were incubated at 25° C. for 20 minutes with continuous rocking. Binding was terminated by filtration through the filter plates using a millipore multiscreen filtration manifold Millipore, Bedford, Mass.). Filter plates were washed four times with 0.15 mL Hepes buffer followed by the addition of 40 μL hi-load scintillant and radioactivity retained on the filters was counted in a Wallac 1450 Microbeta counter (Wallac Inc, Gaithersburg, Md.). Total binding was defined as [^35 S]p85 fusion protein bound to the PDGF-β receptor-bead complex retained on the filter plate after washing. Nonspecific binding was defined as radioactivity retained on the filter plates in the presence of excess unlabeled p85 fusion protein. Specific binding was defined as total binding minus nonspecific binding. IC50 values were calculated by weighted nonlinear regression curve fitting.

[2] = target: T2, PDGF Receptor/PI 3-Kinase association in rat aortic smooth muscle cells (Rattus norvegicus, UniProt Q63787); assay: PDGF Receptor/PI 3-Kinase Cell Association Assay; format: cell-based; conditions: RASMC, PDGF-BB 30 ng/mL 5 minutes; for inhibition at 25 µM: printed in the Cellular IC50 column, read-out: Inhibition of PDGF Receptor/PI3-Kinase Association (Cellular)
T2 construct: endogenous in cells; host or cells: rat aortic smooth muscle cells (RASMC), primary, passages 5 to 20
T2 sequence (Q63787 whole entry): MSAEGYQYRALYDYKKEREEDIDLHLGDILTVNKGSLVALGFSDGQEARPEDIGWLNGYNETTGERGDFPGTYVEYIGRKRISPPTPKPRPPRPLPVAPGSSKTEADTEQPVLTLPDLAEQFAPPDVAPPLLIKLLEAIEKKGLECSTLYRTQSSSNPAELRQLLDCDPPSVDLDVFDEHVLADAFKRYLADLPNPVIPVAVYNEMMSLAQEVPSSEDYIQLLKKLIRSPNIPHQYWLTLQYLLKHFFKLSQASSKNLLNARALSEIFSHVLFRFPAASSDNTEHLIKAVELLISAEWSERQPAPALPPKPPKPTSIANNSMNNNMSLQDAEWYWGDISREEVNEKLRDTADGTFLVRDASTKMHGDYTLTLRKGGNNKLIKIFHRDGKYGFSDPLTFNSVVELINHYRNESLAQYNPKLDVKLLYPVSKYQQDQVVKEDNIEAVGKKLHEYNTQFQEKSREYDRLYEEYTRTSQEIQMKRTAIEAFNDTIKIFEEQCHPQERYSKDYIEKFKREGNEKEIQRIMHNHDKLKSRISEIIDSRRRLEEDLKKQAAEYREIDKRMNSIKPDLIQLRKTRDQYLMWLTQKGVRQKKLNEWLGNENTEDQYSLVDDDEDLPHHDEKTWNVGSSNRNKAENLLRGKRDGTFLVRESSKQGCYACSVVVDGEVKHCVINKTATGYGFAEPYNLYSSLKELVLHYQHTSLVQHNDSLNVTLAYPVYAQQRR
Protocol: Smooth muscle cells were isolated from the thoracic aorta of rats (RASMC) and explanted according to the method of Ross, J. Biol. Chem., 1971;30:172-86. Cells were grown in Dulbecco's modified Eagle's medium (DMEM, Gibco) containing 10% fetal calf serum (FBS, Hyclone, Logan, Utah), 1% glutamine (Gibco) and 1% penicillin/streptomycin (Gibco). Cells were identified as smooth muscle cells by their "hill and valley" growth pattern and by fluorescent staining with a monoclonal antibody specific for SMC […] (Sigma). RASMC were used between passages 5 and 20 for all experiments. Test compounds were prepared in dimethylsulfoxide (DMSO) in order to achieve consistency in the vehicle and to ensure compound solubility. Appropriate DMSO controls were simultaneously evaluated with the test compounds.
Rat aortic smooth muscle cells were grown to confluency in 100 mm dishes. Growth medium was removed and replaced with serum-free medium and cells were incubated at 37° C. for an additional 24 hours. Test compounds were then added directly to the medium and cells incubated for an additional 24 hours. After 24 hours PDGF-BB was added at a final concentration of 30 ng/mL for 5 minutes at 37° C. to stimulated autophosphorylation of the PDGF receptor and association of PI 3-kinase to the phosphorylated receptors. […] Following incubation with ^125 I-protein-A, p85 protein levels were detected by phosphorimage analysis and protein bands quantitated via densitometry. […]

Compound	IC50 [1] [nM]	inhibition at 25 µM [2] [%]	IC50 ([2]; 24 h compound, p85 immunoblot, read-out: Cellular IC50) [nM]
CCCCCCN(CCCCCC)C(=O)[C@H](C)NC(=O)[C@@H](NC(=O)[C@H](Cc1ccc(OP(=O)(O)O)cc1)NC(C)=O)C(C)C [Example 4, [1S-[1R*[R*(R*)]]]-Phosphoric acid mono-(4-{2-acetylamino-2-[1-(1-dihexylcarbamoyl-ethylcarbamoyl)-2-methyl-propylcarbamoyl]-ethyl}-phenyl) ester]	80 ± 10	27	
CCCCCCCCN(CCCCCCCC)C(=O)[C@H](C)NC(=O)[C@@H](NC(=O)[C@H](Cc1ccc(C(F)(F)P(=O)(O)O)cc1)NC(C)=O)C(C)C [Example 3, [1S-[1R*[R*(R*)]]]-[(4-{2-Acetylamino-2-[1-(1-dioctylcarbamoyl-ethylcarbamoyl)-2-methyl-propylcarbamoyl]-ethyl}-phenyl)-difluoro-methyl]-phosphonic acid]	12200 ± 900		
CCCCCCCCN(CCCCCCCC)C(=O)[C@H](C)NC(=O)[C@@H](NC(=O)[C@H](Cc1ccc(OP(=O)(O)O)cc1)NC(C)=O)C(C)C [Example 10, [1S-[1R*[R*(R*)]]]-Phosphoric acid mono-(4-{2-acetylamino-2-[1-(1-dioctylcarbamoyl-ethyl-carbamoyl)-2-methyl-propylcarbamoyl]-ethyl}-phenyl) ester]	3500 ± 500		
CCCCCN(CCCCC)C(=O)[C@H](C)NC(=O)[C@@H](NC(=O)[C@H](Cc1ccc(C(F)(F)P(=O)(O)O)cc1)NC(C)=O)C(C)C [Example 2, [1S-[1R*[R*(R*)]]]-[(4-{2-Acetylamino-2-[1-(1-dipentylcarbamoyl-ethylcarbamoyl)-2-methyl-propylcarbamoyl]-ethyl}-phenyl)-difluoro-methyl]-phosphonic acid]	290 ± 80	30	
CCCCCCN(CCCCCC)C(=O)[C@H](C)NC(=O)[C@@H](NC(=O)[C@H](Cc1ccc(C(F)(F)P(=O)(O)O)cc1)NC(C)=O)C(C)C [Example 1, [1S-[1R*[R*(R*)]]]-[(4-{2-Acetylamino-2-[1-(1-dihexylcarbamoyl-ethylcarbamoyl)-2-methyl-propylcarbamoyl]-ethyl}-phenyl)-difluoro-methyl]-phosphonic acid]	450 ± 40		
CCCCN(CCCC)C(=O)[C@H](C)NC(=O)[C@@H](NC(=O)[C@H](Cc1ccc(OP(=O)(O)O)cc1)NC(C)=O)C(C)C [Example 6, [1S-[1R*[R*(R*)]]]-Phosphoric acid mono-(4-{2-acetylamino-2-[1-(1-dibutylcarbamoyl-ethyl-carbamoyl)-2-methyl-propylcarbamoyl]-ethyl}-phenyl) ester]	1600 ± 320		37500
CCCCCN(CCCCC)C(=O)[C@H](C)NC(=O)[C@@H](NC(=O)[C@H](Cc1ccc(OP(=O)(O)O)cc1)NC(C)=O)C(C)C [Example 8, [1S-[1R*[R*(R*)]]]-Phosphoric acid mono-(4-{2-acetylamino-2-[1-(1-dipentylcarbamoyl-ethyl-carbamoyl)-2-methyl-propylcarbamoyl]-ethyl}-phenyl) ester]	220		
